Results on 2 compounds are retold here after patent publication US20100121105A1, “Composition and Method of synthesizing a biomolecule and its therapeutics applications” (priority 2009, published 2010).

Read-outs that look alike come from different tables or passages of the source.

Data set [1] concerns volunteers. The experiment in a line: Comparison of synthetic J-Factor and biosynthetic GH: complications, diabetogenicity, antigenicity. Format: in vivo. As to the method:
(§1) In one of the embodiment of the present invention L-arginine was chemically converted into J-Factor ex-vivo. Thus converted/synthetic produced ex-vivo J-Factor was orally administrated to a small group of 11 volunteers. Each volunteers were given 0.5 mg per 10 days (=1.5 mg/month) and photographs were taken in each case at the beginning and end of the trial to record the changes in their faces and heads.
In fact all of the above mentioned changes help in preventing or limiting the aging signs. The advantage of using ex-vivo synthesized J-Factor of the present invention when compared to biosynthetic GH is shown in the comparative table below: […]

Data set [2] deals with volunteers. The experiment in a line: Oral administration of ex-vivo synthesized J-Factor to 11 volunteers, physical changes observed. Conditions: 0.5 mg per 10 days (=1.5 mg/month), observed in each volunteer. As to the method:
as §1
These changes indicate that ex-vivo synthesized J-Factor functioned like GH and autocrine-paracrine IGF-1 and also stimulated IGF-1 production.

Data set [3] deals with volunteers. Conditions: biosynthetic GH, intra muscular administration, 3 time a week; stated as common knowledge; cited from earlier work.
Where [4] appears, read: comparative table, oral administration 3 times a month, no test described.

On to `NC(N)=NCCC[C@H](N)C(=O)O` [J-Factor, L-2-amino-5-diaminomethyleneamino-pentanoic acid], for which the “Complications (Joint swelling, Carpal tunnel syndrome, Joint pain)” value in the data set with volunteers [1] (11 volunteers, oral administration, 3 times a month) is given as “showed no complications such as Joint”. Further, in the data set with volunteers [1] (setting [4]), the Antigenicity entry is recorded as “Non-antigenic” and the Diabetogenicity result was “Non-diabetogenic”. Also, in the data set on volunteers [2], the “Eye's central vision” value was “Improvement in eye's central vision”, the “Fatty tissue e.g. in abdomen” value is given as “A decrease in fatty tissue”, the Hair growth entry was “Hair growth” and the Muscular hypertrophy result is listed as “Muscular hypertrophy”. Besides, the “Tone and color of facial skin” value with volunteers [2] is “Improved tone and color of facial skin”.
As to “Biosynthetic GH: biosynthetic Growth Hormone, comparator in the table”, in the data set with volunteers [3], the Antigenicity entry is given as “Antigenic”, the Complications result is given as “Joint swelling Carpal tunnel” and the Diabetogenicity entry is on record as “Diabetogenic”.
